For one assay, the system named is TAR or RRE RNAs. Particulars: cited from earlier work.
For the next assay, the system named is TAR. Particulars: in contrast to Tat peptide (R52) or AACs; cited from earlier work.
The next assay deals with HIV-1 clade C. The experiment in a line: Replication of HIV-1 clade C in MT2 cells, tetrazolium viability. It is filed as cell-based. Particulars: present throughout infection or only the first two hours; NeoR6 2–20 μM, R3G 5–40 μM. Here is the method: Infected cells were washed, seeded in 96-well plate (5×10^4 cells per well) and incubated for 4 days in the absence or presence of various drug concentrations, until syncytia were observed (>25% ctu). Cell viability was measured by tetrazolium-based colorimetric method. The results shown are mean ±standard deviation of triplicates. Circles denote the presence of AACs during the infection step and after the cells were washed; Squares denote the presence of AACs only during the first 2 hours prior to washing.

Another assay has as its target T1, CXCR4 (Homo sapiens, UniProt P61073).
T1 construct: endogenous in cells; host or cells: PM1 cells and PBMC
As to the kind of experiment: Inhibition of anti-CXCR4 mAb 12G5 binding to cells, flow cytometry. The class given is cell-based. As for the experimental part:
FIGS. 11a–d are graphs depicting the binding of AACs to CXCR4 in the presence of anti CXCR4 antibody (12G5). PM1 cells were incubated with PE-conjugated isotype control mAb, PE-anti CXCR4 conjugated mAb (12G5) alone, or in the presence of the indicated AACs for 30 min at 4° C. The cells were then washed twice with PBS and analyzed by flow cytometry. The MFI values are shown in parenthesis.
Interaction of AACs with CXCR4 was determined by flow cytometry (FACScan, Becton Dickinson) as described recently (Litovchick et al., 2001, supra). Briefly, 0.5×10^6 cells were washed in ice-cold PBS containing 0.1% sodium azide (wash buffer) and incubated at 4° C. with anti-CXCR4 mAb, 12G5 (PharMingen, San Diego, Calif.) conjugated to phycoerithrine (PE), in the absence or presence of different concentrations of the AACs. After 30 min of incubation, the cells were washed with ice-cold wash buffer and fixed in PBS containing 1% paraformaldehyde. Non-specific fluorescence was assessed by using isotype-matched control. For each sample 10,000 events were acquired. Data were analyzed and processed using CellQuest™ software (Becton Dickinson).

A further assay has as its system HIV-1IIIB wild type. The experiment in a line: Inhibition of HIV-1IIIB wild type in MT2 or cMAGI cells. It is filed as cell-based. The text has this:
(§1) The cMAGI assay is based on the ability of HIV-1 TAT to transactivate the expression of an integrated β-galactosidase reporter gene driven by the HIV-LTR [Chackerian, B. et al., 1997. J Virol. 71: 3932–3939; Collins, K. B. et al., 2000. Nat. Med. 6: 475–479]. The β-galactosidase reporter has been modified to remain localized in the nucleus where it can be detected with the X-gal substrate as an intense nuclear stain within a few days of infection. The X-gal substrate used was 5-bromo-4-chloro-3-indoyl-beta-D-galactopyranoside. HIV1IIIB was propagated by subculture in MT2 as described previously [Litovchick (2001) Supra]. Aliquots of cell-free culture supernatants were used as viral inoculum. […] The cytopathic effects of the viral infection of MT2 cells were analyzed by microscopic assessment of syncytium formation. These latter data were obtained by analysis of duplicate samples by two independent observers. HIV-1 infection of cMAGI cells was determined by counting the number of HIV-1 infected cells (stained blue).

Assay [1] has as its system NeoR6 resistant HIV-1 isolates. As to the kind of experiment: Inhibition of NeoR6 resistant HIV-1 isolates in MT2 or cMAGI cells. The class given is cell-based.
Excerpt: as §1
Culture fluids were replaced […] weekly with fresh medium containing an appropriate drug concentration. […] From the final cycle of each experiment the resistant virus was propagated as described above.

A further assay concerns the target T2, CCR5 (Homo sapiens, UniProt P51681).
T2 construct: in PHA stimulated peripheral blood lymphocytes (PBL); host or cells: PHA stimulated peripheral blood lymphocytes (PBL)
The settings on record: PHA stimulated peripheral blood lymphocytes; cited from earlier work.

The target in the next assay is T3, CD4 (Homo sapiens, UniProt P01730).
T3 construct: in PHA stimulated peripheral blood lymphocytes (PBL); host or cells: PHA stimulated peripheral blood lymphocytes (PBL)
The settings on record: PHA stimulated peripheral blood lymphocytes; cited from earlier work.

For assay [2], the system named is lymphocytes, PBMC and neurons. Particulars: cited from earlier work.
Assay [3] has as its system RRE IIB. As to the kind of experiment: Fluorescence anisotropy of aminoglycoside binding to RRE IIB, fluorescein-Rev34-50 tracer (literature). The arrangement: species or system HIV-1. A general note: In fluorescence polarisation assays a small probe gives low polarisation when free and higher when bound to something large.
The subject of assay [4] is HIV-1 isolates. As to the kind of experiment: Inhibition of HIV-1 infection (cMAGI reporter cells, MT2 syncytium formation). The class given is cell-based. Particulars: up to 100 μM. As for the experimental part:
Aliquots of cell-free culture supernatants were used as viral inoculum. […] Cytotoxicity determinations were carried out in MT2 and H9 cells by trypan blue exclusion assay.
Viral inhibition was determined by incubating cMAGI HIV-1 reporter cells with 0.2–0.5 multiplicity of infection of HIV-1IIIB for 4 days at 37° C. in the presence or absence of various concentration of AACs, prior to counting the number of HIV-1 infected cells (stained blue). The cytopathic effects of the viral infection of MT2 cells were also analyzed by microscopic assessment of syncytium formation. These latter data were obtained by analysis of duplicate samples by two independent observers.

The target of assay [5] is RRE IIB. Particulars: fluorescein-Rev34-50 as fluorescent tracer; read-out: KD of aminoglycoside binding to RRE IIB; cited from earlier work.
Assay [6] relates to HIV-1 isolates. The settings on record: Cabrera et al., 2002; cited from earlier work.
[7] abbreviates: HIV-1IIIB wt, mean and standard deviation of three separate experiments, read-out: EC50, Wild-type.
The mark [8] stands for this setting: NeoR6 resistant isolates after 25 passages, mean and standard deviation of three separate experiments, read-out: EC50, NeoR6RES.

Read-outs that look alike come from different tables or passages of the source.

Consider four compounds from patent publication US7160992B2, “Amino-modified polysaccharides and methods of generating and using same” (Yeda Research and Development Co., Ltd., priority 2003, dated 2007).

T1 sequence (P61073 whole entry): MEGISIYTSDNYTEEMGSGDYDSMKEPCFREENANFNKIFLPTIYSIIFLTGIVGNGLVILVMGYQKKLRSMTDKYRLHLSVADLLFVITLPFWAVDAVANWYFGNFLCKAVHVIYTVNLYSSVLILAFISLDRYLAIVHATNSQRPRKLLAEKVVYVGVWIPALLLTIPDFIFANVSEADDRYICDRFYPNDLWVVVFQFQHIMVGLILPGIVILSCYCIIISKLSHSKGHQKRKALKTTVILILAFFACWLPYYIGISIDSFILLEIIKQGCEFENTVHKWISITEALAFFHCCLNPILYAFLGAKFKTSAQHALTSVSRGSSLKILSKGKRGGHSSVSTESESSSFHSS
T2 sequence (P51681 whole entry): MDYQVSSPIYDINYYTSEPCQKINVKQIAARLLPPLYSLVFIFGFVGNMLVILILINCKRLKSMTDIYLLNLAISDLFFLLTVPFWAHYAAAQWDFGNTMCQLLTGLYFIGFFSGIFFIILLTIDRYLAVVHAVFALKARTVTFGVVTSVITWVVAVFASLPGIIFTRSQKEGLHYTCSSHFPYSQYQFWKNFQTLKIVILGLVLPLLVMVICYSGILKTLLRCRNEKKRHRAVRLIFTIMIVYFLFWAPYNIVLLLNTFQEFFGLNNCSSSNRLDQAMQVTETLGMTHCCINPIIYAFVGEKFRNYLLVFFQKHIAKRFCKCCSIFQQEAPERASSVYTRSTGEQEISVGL

As to `N=C(N)NCCCC(=O)NCC1OC(OC2C(NC(=O)CCCNC(=N)N)CC(NC(=O)CCCNC(=N)N)C(OC3OC(CO)C(O)C(NC(=O)CCCNC(=N)N)C3O)C2O)C(O)C(O)C1O` (centres unmarked) [GB4K, kanamycine A conjugated to four γ-guadinno butiric acid], the “affinity to TAR or RRE RNAs (in words)” value with TAR or RRE RNAs is given as “very low affinity”. The “protection of the bulge region of TAR from RNase A cleavage” value with TAR is recorded as “cannot protect the bulge region of TAR from RNase A cleavage”.
As usually defined, the EC50 is the concentration needed to bring the measured effect to its halfway point. For `CNC(C)C1CCC(NC(=O)C(N)CCCNC(=N)N)C(OC2C(NC(=O)C(N)CCCNC(=N)N)CC(NC(=O)C(N)CCCNC(=N)N)C(OC3OCC(C)(O)C(NC)C3O)C2O)O1` (centres unmarked) [R3G, tri-arginine gentamycin C1 conjugate, reference compound], the “inhibition of viral proliferation (in words)” value in the assay with HIV-1 clade C is “could inhibit viral proliferation”. In addition, the “reduction of 12G5 mAb binding to the cells” value at CXCR4 (10 μM AAC, PM1 cells, 30 min at 4° C.) was 84%. Moreover, the “median fluorescence intensity (MFI) of PE-12G5 in presence of AAC” value at CXCR4 (10 μM AAC, mAb alone 451, isotype control 30) is 89. Moreover, the EC50 in the assay on HIV-1IIIB wild type (setting [7]) amounted to 4.1 ± 2.4 µM; in assay [1] (setting [8]) it was 21 ± 8.8 µM. Besides, the “times more resistant than the wild type virus” value in assay [1] (NeoR6 resistant isolates, following 25 passages) was approximately 5. The “inhibition of binding of 2D7, a mAb directed to CCR5” value on CCR5 is “neither R3G nor R4K or NeoR6 inhibit the binding”. On CD4, the “inhibition of binding of anti CD4 antibody (Leu 3a)” value is recorded as “neither R3G nor R4K or NeoR6 inhibit the binding”. The accumulation in cells entry in assay [2] is recorded as “accumulate in different cell types”.
By Kd is commonly meant a measure of binding affinity in units of concentration. On to `NC[C@@H]1O[C@H](O[C@H]2[C@@H](O)[C@H](O[C@@H]3[C@@H](O)[C@H](N)C[C@H](N)[C@H]3O[C@H]3O[C@H](CN)[C@@H](O)[C@H](O)[C@H]3N)O[C@@H]2CO)[C@H](N)[C@@H](O)[C@@H]1O` [neomycin, neomycin B], for which the “times weaker than NeoR1 binding to RRE IIB” value with RRE IIB [3] (comparator NeoR1) was determined as 6. Also, the “times weaker than NeoR2 binding to RRE IIB” value with RRE IIB [3] (comparator NeoR2) turned out to be 7. The “times weaker than NeoR6 binding to RRE IIB” value in the assay with RRE IIB [3] (comparator NeoR6) was approximately 550. Besides, in the assay on HIV-1 isolates [4], the “antiviral activity (in words)” value is listed as “did not reveal antiviral activity”. In addition, at CXCR4 (20 μM aminoglycoside antibiotic), the “inhibition of 12G5 mAb binding to CXCR4 (in words)” value was “did not inhibit”. On RRE IIB [5], the Kd was 1.18 µM.
As for SDF-1α, at CXCR4 (62.5 and 125 nM SDF-1α, control), the “inhibition of PE-12G5 binding to PM1 cells by SDF-1α” value is given as “inhibited significantly”. For the same compound, the EC50 in the assay on HIV-1IIIB wild type (setting [7]) is 0.2 ± 0.05 µM; in the assay with HIV-1IIIB wild type (wt HIV-1 isolate, text of b338), 1 µg/mL; in assay [1] (NeoR6 resistant HIV-1 isolates, text of b338) it was 1 µg/mL; in assay [1] (setting [8]) it was 0.18 ± 0.07 µM. The “anti-HIV-1 EC50, fold lower than that of NeoR6” value in the assay with HIV-1 isolates [6] was approximately 70 fold.
